In general, IC50 refers to the point on the concentration scale where inhibition reaches its midpoint.

Converted amounts (≈) assume the structure as drawn. Where two headings read alike, the source gives them in different places. Peptide text beside a SMILES is read from it.

For experiment [1], the system named is T. gondii tachyzoites, strain RH. The class given is cell-based, Toxoplasma gondii. The following applies: 72 h. The protocol: Using microliter plates, T. gondii tachyzoites, strain RH were co-incubated with fibroblasts (MCR5, Bio-Merieux) for 72 hrs in the presence and absence of test compounds T. gondii was quantified using an ELISA. The activities of the test compounds are as follows: […]

A further experiment relates to HIV. The class given is cell-based. From the text: The inhibitory effect of test compounds on the HIV-induced cytopathic effect on the MT4 T cell line as described by R. Pauwels in J. Virol. Methods, 1988, Vol. 20, pp 309-321 was used.
Experiment [2] can be described thus: Antiinflammatory activity, adjuvent arthritis test (Pearson). The class given is in vivo. The following applies: oral, solutions in olive oil and tween 80. The protocol:
The antiinflammatory activity of test compounds was determined by the adjuvent arthritis test described by Pearson, “Arthr. Rheum”, 1959, Vol. 2., 440. Test compounds were administered orally as solutions in olive oil and tween 80.

The target in a further experiment is cyclophilin (Homo sapiens, UniProt P62937). The experiment is described as follows: Test for cyclophilin binding (Fliri). The following applies: ratio to cyclosporin A. From the text: To measure the affinity and inhibition of test compounds for cyclophilin, the test described by H. Fliri in “Antibiotics and Antiviral compounds”, 1993, Verlag Chemie, K.Krohn, H. A. Kirst, and H. Maag, eds., p 229-240 was used.
Sequence of cyclophilin (P62937 whole entry): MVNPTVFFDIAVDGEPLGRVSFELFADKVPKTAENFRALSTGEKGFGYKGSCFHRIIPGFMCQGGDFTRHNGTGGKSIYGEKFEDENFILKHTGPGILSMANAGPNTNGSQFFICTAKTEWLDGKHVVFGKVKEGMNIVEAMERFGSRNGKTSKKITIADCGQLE

The target of experiment [3] is recombinant human cyclophilin 18 (Homo sapiens, UniProt P62937). Description: Test for inhibition of cyclophilin (chymotrypsin-coupled hydrolysis of Succ-Ala-Phe-Pro-Phe-4-nitroanilide). The class given is biochemical. The following applies: recombinant human cyclophilin 18, 10 °C, HEPES buffer, 5 minutes preincubation, substrate 50 μM. As for the experimental part:
The test described by G. Fischer et al., Biomed. Biochim. Acta, Vol. 43, 1101-1111 (1984) was used. Specifically, 5 μL of a 1 μM solution of recombinant human cyclophilin 18 was dissolved, at 10,0±0.3° C. in 1250 μL HEPES buffer; α-chymotrypsin was added to give a final concentration of 30 μM. […] After 5 minutes preincubation, Succ-Ala-Phe-Pro-Phe-4-nitroanilide (SEQ ID No. 1) was added to give a final concentration of 50 μM. The hydrolysis of the substrate was measured spectrophotometrically at […].

Sequence of recombinant human cyclophilin 18 (P62937 whole entry): as above

`C/C=C/C[C@@H](C)[C@@H](O)[C@H]1C(=O)N[C@@H](CC)C(=O)N(C)C(SCCN(C)C)C(=O)N(C)[C@@H](CC(C)C)C(=O)N[C@@H](C(C)C)C(=O)N(C)[C@@H](CC(C)C)C(=O)N[C@@H](C)C(=O)N[C@H](C)C(=O)N(C)[C@@H](CC(C)C)C(=O)N(C)[C@@H](CC(C)C)C(=O)N(C)[C@@H](C(C)C)C(=O)N1C` (some centres unmarked) [Example 9, 3-(2-dimethylaminoethylthio)-cyclosporin]: the “Activity against T. gondii (IC50)” value in experiment [1] worked out at 0.1 µg/mL. The IC50 with HIV (HIV-induced cytopathic effect on MT4 T cell line) came to 0.03 µg/mL (≈ 0.023 µM).
Consider `C/C=C/C[C@@H](C)[C@@H](OC(C)=O)[C@H]1C(=O)N[C@@H](CC)C(=O)N(C)C(OC(C)=O)C(=O)N(C)[C@@H](CC(C)C)C(=O)N[C@@H](C(C)C)C(=O)N(C)[C@@H](CC(C)C)C(=O)N[C@@H](C)C(=O)N[C@H](C)C(=O)N(C)[C@@H](CC(C)C)C(=O)N(C)[C@@H](CC(C)C)C(=O)N(C)[C@@H](C(C)C)C(=O)N1C` (some centres unmarked) [Example 12, 3′,3-Diacetoxy-cyclosporin], for which, in experiment [2], the “ED50, dose effective in reducing the joint swelling by 50%” value stood at 15 mg/kg. Besides, the IC50 with HIV amounted to 0.15 µg/mL (≈ 0.115 µM). Further, the Relative IC50, i.e. IC50 (cyclosporin A)/IC50 (test compound) at cyclophilin was 1.5.
Take `C/C=C/C[C@@H](C)[C@@H](O)[C@H]1C(=O)N[C@@H](CC)C(=O)N(C)C(OC(C)=O)C(=O)N(C)[C@@H](CC(C)C)C(=O)N[C@@H](C(C)C)C(=O)N(C)[C@@H](CC(C)C)C(=O)N[C@@H](C)C(=O)N[C@H](C)C(=O)N(C)[C@@H](CC(C)C)C(=O)N(C)[C@@H](CC(C)C)C(=O)N(C)[C@@H](C(C)C)C(=O)N1C` (some centres unmarked) [Example 13, 3-Acetoxy-cyclosporin]: the “Activity against T. gondii (IC50)” value in experiment [1] came to 1 µg/mL. Also, the IC50 in the experiment on HIV worked out at 0.15 µg/mL (≈ 0.119 µM).
For `C/C=C/C[C@@H](C)[C@@H](O)[C@H]1C(=O)N[C@@H](CC)C(=O)N(C)C(OC)C(=O)N(C)[C@@H](CC(C)C)C(=O)N[C@@H](C(C)C)C(=O)N(C)[C@@H](CC(C)C)C(=O)N[C@@H](C)C(=O)N[C@H](C)C(=O)N(C)[C@@H](CC(C)C)C(=O)N(C)[C@@H](CC(C)C)C(=O)N(C)[C@@H](C(C)C)C(=O)N1C` (some centres unmarked) [Example 14, 3-Methoxycyclosporin], the “Activity against T. gondii (IC50)” value in experiment [1] was found to be 0.6 µg/mL. Moreover, the “ED50, dose effective in reducing the joint swelling by 50%” value in experiment [2] is on record as 10 mg/kg.
`C/C=C/C[C@@H](C)[C@@H](O)[C@H]1C(=O)N[C@@H](CC)C(=O)N(C)C(OCC)C(=O)N(C)[C@@H](CC(C)C)C(=O)N[C@@H](C(C)C)C(=O)N(C)[C@@H](CC(C)C)C(=O)N[C@@H](C)C(=O)N[C@H](C)C(=O)N(C)[C@@H](CC(C)C)C(=O)N(C)[C@@H](CC(C)C)C(=O)N(C)[C@@H](C(C)C)C(=O)N1C` (some centres unmarked) [Example 15, 3-Ethoxycyclosporin] (HELM PEPTIDE1{[C/C=C/C[C@@H](C)[C@@H](O)[C@@H](C(=O)[*:2])N(C)[*:1]].[Abu].[CCOC(C(=O)[*:2])N(C)[*:1]].[meL].V.[meL].A.[dA].[meL].[meL].[meV]}$PEPTIDE1,PEPTIDE1,1:R1-11:R2$$$V2.0): the “Activity against T. gondii (IC50)” value in experiment [1] was determined as 0.6 µg/mL. In experiment [2], the “ED50, dose effective in reducing the joint swelling by 50%” value is recorded as 15 mg/kg. Further, the Relative IC50, i.e. IC50 (cyclosporin A)/IC50 (test compound) on cyclophilin stood at 2.
As to `C/C=C/C[C@@H](C)[C@@H](O)[C@H]1C(=O)N[C@@H](CC)C(=O)N(C)[C@H](OC(C)(C)C)C(=O)N(C)[C@@H](CC(C)C)C(=O)N[C@@H](C(C)C)C(=O)N(C)[C@@H](CC(C)C)C(=O)N[C@@H](C)C(=O)N[C@H](C)C(=O)N(C)[C@@H](CC(C)C)C(=O)N(C)[C@@H](CC(C)C)C(=O)N(C)[C@@H](C(C)C)C(=O)N1C` [Example 17, [D-Sar-(tert.-butoxy)^3]-cyclosporin] (HELM PEPTIDE1{[C/C=C/C[C@@H](C)[C@@H](O)[C@@H](C(=O)[*:2])N(C)[*:1]].[Abu].[CN([C@H](OC(C)(C)C)C(=O)[*:2])[*:1]].[meL].V.[meL].A.[dA].[meL].[meL].[meV]}$PEPTIDE1,PEPTIDE1,1:R1-11:R2$$$V2.0), in experiment [3], the IC50 came to 18.9 ± 1.03 nM.
Consider `C=CCO[C@@H]1C(=O)N(C)[C@@H](CC(C)C)C(=O)N[C@@H](C(C)C)C(=O)N(C)[C@@H](CC(C)C)C(=O)N[C@@H](C)C(=O)N[C@H](C)C(=O)N(C)[C@@H](CC(C)C)C(=O)N(C)[C@@H](CC(C)C)C(=O)N(C)[C@@H](C(C)C)C(=O)N(C)[C@@H]([C@H](O)[C@H](C)C/C=C/C)C(=O)N[C@@H](CC)C(=O)N1C` [Example 18, [D-Sar-(allyloxy)^3]-cyclosporin] (HELM PEPTIDE1{[C/C=C/C[C@@H](C)[C@@H](O)[C@@H](C(=O)[*:2])N(C)[*:1]].[Abu].[C=CCO[C@H](C(=O)[*:2])N(C)[*:1]].[meL].V.[meL].A.[dA].[meL].[meL].[meV]}$PEPTIDE1,PEPTIDE1,1:R1-11:R2$$$V2.0), for which, in experiment [3], the IC50 came to 10.2 ± 2.21 nM.

(Values after US6583265B1, “Cyclosporins” (C-Chem AG, priority 1998, dated 2003).)
